# Test results reported in patent publication US11655235B2, “Pyrrolidine and piperidine compounds” (YUHAN CORPORATION, priority 2019, dated 2023).
# Target: T1, Recombinant human FAP (Homo sapiens, UniProt Q12884)
# T1 construct: purchased R&D systems
# T1 sequence (Q12884 1-760): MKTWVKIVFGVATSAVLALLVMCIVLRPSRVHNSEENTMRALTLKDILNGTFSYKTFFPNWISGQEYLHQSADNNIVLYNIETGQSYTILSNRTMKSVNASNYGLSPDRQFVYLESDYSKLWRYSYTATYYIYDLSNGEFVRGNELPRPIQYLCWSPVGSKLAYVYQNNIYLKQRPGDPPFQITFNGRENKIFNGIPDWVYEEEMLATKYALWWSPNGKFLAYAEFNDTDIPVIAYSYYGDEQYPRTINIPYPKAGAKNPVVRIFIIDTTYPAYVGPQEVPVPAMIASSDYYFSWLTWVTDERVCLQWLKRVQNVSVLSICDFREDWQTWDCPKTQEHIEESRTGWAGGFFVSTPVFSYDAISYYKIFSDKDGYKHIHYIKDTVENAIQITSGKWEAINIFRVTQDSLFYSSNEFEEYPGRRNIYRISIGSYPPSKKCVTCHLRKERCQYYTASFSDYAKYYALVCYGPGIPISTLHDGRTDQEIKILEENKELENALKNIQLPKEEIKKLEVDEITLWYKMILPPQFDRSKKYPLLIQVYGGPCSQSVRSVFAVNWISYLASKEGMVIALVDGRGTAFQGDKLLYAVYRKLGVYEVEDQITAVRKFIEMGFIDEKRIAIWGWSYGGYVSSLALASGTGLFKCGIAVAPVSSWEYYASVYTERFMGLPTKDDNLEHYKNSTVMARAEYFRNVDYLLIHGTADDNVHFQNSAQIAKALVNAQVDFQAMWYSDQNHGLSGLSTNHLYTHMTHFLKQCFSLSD
# Assay: FAP inhibition, fluorogenic substrate Z-Gly-Pro-AMC
# Type: biochemical
# Conditions: recombinant human FAP, substrate Z-Gly-Pro-AMC
# How it was run: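 Recombinant human FAP, 10 ng per reaction, in 50 mM Tris pH 7.5 with 1 M NaCl and 1 mg/ml BSA at 25° C; substrate Z-Gly-Pro-AMC, ≤0.1% DMSO. AMC fluorescence read at ex 380/em 460 nm; % signal-rate decrease vs no-inhibitor control, 8-point curves fitted to a four-parameter logistic for IC50.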
row,IC50 [nM],Compound
1,0.8,"N#C[C@@H]1C[C@H](F)CN1C(=O)CN1CC[C@H](Nc2ccc(OC(F)(F)F)c3ncccc23)C1 [Example 266, (2S,4S)-4-fluoro-1-[2-[(3S)-3-[[8-(trifluoromethoxy)-5-quinolyl]amino]pyrrolidin-1-yl]acetyl]pyrrolidine-2-carbonitrile]"
2,1,"N#C[C@@H]1C[C@H](F)CN1C(=O)CN1CC[C@H](Nc2ccc(OCc3ccccc3)c3ncccc23)C1 [Example 268, (2S,4S)-4-fluoro-1-[2-[(3S)-3-[(8-benzyloxy-5-quinolyl)amino]pyrrolidin-1-yl]acetyl]pyrrolidine-2-carbonitrile]"
3,4,"N#C[C@@H]1C[C@H](F)CN1C(=O)CN1CCC(Nc2ccc(C(F)(F)F)c3ncccc23)CC1 [Example 334, (2S,4S)-4-fluoro-1-[2-[4-[[8-(trifluoromethyl)-5-quinolyl]amino]-1-piperidyl]acetyl]pyrrolidine-2-carbonitrile]"
4,2.2,"N#C[C@@H]1C[C@H](F)CN1C(=O)CN1CCC(Nc2ccc(OC(F)(F)F)c3ncccc23)CC1 [Example 347, (2S,4S)-4-fluoro-1-[2-[4-[[8-(trifluoromethoxy)-5-quinolyl]amino]-1-piperidyl]acetyl]pyrrolidine-2-carbonitrile]"
5,2.1,"COc1cnc2cccc(NC3CCN(CC(=O)N4C[C@@H](F)C[C@H]4C#N)CC3)c2c1 [Example 348, (2S,4S)-4-fluoro-1-[2-[4-[(3-methoxy-5-quinolyl)amino]-1-piperidyl]acetyl]pyrrolidine-2-carbonitrile]"
6,1.6,"N#C[C@@H]1C[C@H](F)CN1C(=O)CN1CCC(Nc2cccc3ncc(F)cc23)CC1 [Example 349, (2S,4S)-4-fluoro-1-[2-[4-[(3-fluoro-5-quinolyl)amino]-1-piperidyl]acetyl]pyrrolidine-2-carbonitrile]"
7,2.7,"N#C[C@@H]1C[C@H](F)CN1C(=O)CN1CCC(Nc2cccc3cnc(Cl)cc23)CC1 [Example 352, (2S,4S)-1-[2-[4-[(3-chloro-5-isoquinolyl)amino]-1-piperidyl]acetyl]-4-fluoro-pyrrolidine-2-carbonitrile]"
8,2.7,"COc1cc2c(NC3CCN(CC(=O)N4C[C@@H](F)C[C@H]4C#N)CC3)cccc2cn1 [Example 355, (2S,4S)-4-fluoro-1-[2-[4-[(3-methoxy-5-isoquinolyl)amino]-1-piperidyl]acetyl]pyrrolidine-2-carbonitrile]"
9,1.2,"Cc1ccc2nccc(OC3CCN(CC(=O)N4C[C@@H](F)C[C@H]4C#N)CC3)c2c1 [Example 410, (2S,4S)-4-fluoro-1-[2-[4-[(6-methyl-4-quinolyl)oxy]-1-piperidyl]acetyl]pyrrolidine-2-carbonitrile]"

# Second part, the compound before the results:
row,Compound,IC50 [nM]
1,"N#C[C@@H]1C[C@H](F)CN1C(=O)CN1CC[C@H](Nc2cccc3ncccc23)C1 [Example 228, (2S,4S)-4-fluoro-1-[2-[(3S)-3-(5-quinolylamino)pyrrolidin-1-yl]acetyl]pyrrolidine-2-carbonitrile]",1.21
2,"N#Cc1cnc2cccc(N[C@H]3CCN(CC(=O)N4CCC[C@H]4C#N)C3)c2c1 [Example 232, 5-[[(3S)-1-[2-oxo-2-[(2S)-2-cyanopyrrolidin-1-yl]ethyl]pyrrolidin-3-yl]amino]quinoline-3-carbonitrile]",1.3
3,"COc1cnc2cccc(N[C@H]3CCN(CC(=O)N4CCC[C@H]4C#N)C3)c2c1 [Example 233, (2S)-1-[2-[(3S)-3-[(3-methoxy-5-quinolyl)amino]pyrrolidin-1-yl]acetyl]pyrrolidine-2-carbonitrile]",0.7
4,"N#C[C@@H]1CCCN1C(=O)CN1CC[C@H](Nc2ccc(F)c3ncccc23)C1 [Example 244, (2S)-1-[2-[(3S)-3-[(8-fluoro-5-quinolyl)amino]pyrrolidin-1-yl]acetyl]pyrrolidine-2-carbonitrile]",2.2
5,"N#C[C@@H]1CCCN1C(=O)CN1CC[C@H](Nc2ccc(C(F)(F)F)c3ncccc23)C1 [Example 245, (2S)-1-[2-[(3S)-3-[[8-(trifluoromethyl)-5-quinolyl]amino]pyrrolidin-1-yl]acetyl]pyrrolidine-2-carbonitrile]",1
6,"N#Cc1ccc(N[C@H]2CCN(CC(=O)N3CCC[C@H]3C#N)C2)c2cccnc12 [Example 247, 5-[[(3S)-1-[2-oxo-2-[(2S)-2-cyanopyrrolidin-1-yl]ethyl]pyrrolidin-3-yl]amino]quinoline-8-carbonitrile]",1.3
7,"N#C[C@@H]1C[C@H](F)CN1C(=O)CN1CC[C@H](Nc2cccc3ncc(F)cc23)C1 [Example 255, (2S,4S)-4-fluoro-1-[2-[(3S)-3-[(3-fluoro-5-quinolyl)amino]pyrrolidin-1-yl]acetyl]pyrrolidine-2-carbonitrile]",1
8,"COc1ccc(N[C@H]2CCN(CC(=O)N3C[C@@H](F)C[C@H]3C#N)C2)c2cccnc12 [Example 263, (2S,4S)-4-fluoro-1-[2-[(3S)-3-[(8-methoxy-5-quinolyl)amino]pyrrolidin-1-yl]acetyl]pyrrolidine-2-carbonitrile]",1.1
